Source: EP0200818A1, “Derivatives of the pluramycin group having anti-tumor activity, process for their preparation and their use as medicaments” (MICROBIAL CHEMISTRY RESEARCH FOUNDATION, priority 1984, dated 1986)

Experiments:
[1] = system: cultured leukemia cell L 1210; test: Cytotoxicity: growth inhibition of cultured leukemia cells; format: cell-based; settings: growth of cultured leukemia cell L 1210
Procedure: The growth of cultured leukemia cell L 1210 was inhibited by 0.07 µg/ml (IC50) of 5',6'~dehydrokidamycin.

L 1210 leukemia cells = test: Anti-tumor activity: life prolongation of mice transplanted intraperitoneally with L 1210 leukemia cells; format: in vivo, CDF1 mice; settings: observed for 30 days, survival of physiological saline control mice = 100
Procedure: A suspension of 1 x 10^5 L 1210 leukemia cells was transplated intraperitoneally in each of the CDF1 mice tested. Thereafter, 5',6'-dehydrokidamycin was injected intraperitoneally for 10 days in predetermined amounts, 10, 5, 2.5, 1.25, 0.625 and 0.3125 mg/kg.

[2] = Acute toxicity (LD50), single intraperitoneal injection; format: in vivo; settings: single intraperitoneal injection in mice
Procedure: The LD50 of 5',6'-dehydrokidamycin for a single intraperitoneal injection in mice was 100 mg/kg.

5',6'-dehydrokidamycin
IC50 [1]: 0.07 µg/mL
Percent life prolongation (L 1210 leukemia cells; 0.3125 mg/kg/day intraperitoneally for 10 days): 147%
Percent life prolongation (L 1210 leukemia cells; 0.625 mg/kg/day intraperitoneally for 10 days): 133%
Percent life prolongation (L 1210 leukemia cells; 1.25 mg/kg/day intraperitoneally for 10 days): 133%
Percent life prolongation (L 1210 leukemia cells; 2.5 mg/kg/day intraperitoneally for 10 days): 133%
Percent life prolongation (L 1210 leukemia cells; 5 mg/kg/day intraperitoneally for 10 days): 173%
Percent life prolongation (L 1210 leukemia cells; 10 mg/kg/day intraperitoneally for 10 days): 153%
LD50 [2]: 100 mg/kg
